Data reported in patent US8124598B2 (priority 2006, dated 2012).
“Also recorded” adds a separate entry of the source.

Experiments:
[1] = target: T1, [^3H]dexamethasone-activated glucocorticoid receptor (Homo sapiens, UniProt P04150); conditions: brain cells; cited from earlier work
T1 construct: glucocorticoid receptor in brain cells; host or cells: brain cells
T1 sequence (P04150 1-777): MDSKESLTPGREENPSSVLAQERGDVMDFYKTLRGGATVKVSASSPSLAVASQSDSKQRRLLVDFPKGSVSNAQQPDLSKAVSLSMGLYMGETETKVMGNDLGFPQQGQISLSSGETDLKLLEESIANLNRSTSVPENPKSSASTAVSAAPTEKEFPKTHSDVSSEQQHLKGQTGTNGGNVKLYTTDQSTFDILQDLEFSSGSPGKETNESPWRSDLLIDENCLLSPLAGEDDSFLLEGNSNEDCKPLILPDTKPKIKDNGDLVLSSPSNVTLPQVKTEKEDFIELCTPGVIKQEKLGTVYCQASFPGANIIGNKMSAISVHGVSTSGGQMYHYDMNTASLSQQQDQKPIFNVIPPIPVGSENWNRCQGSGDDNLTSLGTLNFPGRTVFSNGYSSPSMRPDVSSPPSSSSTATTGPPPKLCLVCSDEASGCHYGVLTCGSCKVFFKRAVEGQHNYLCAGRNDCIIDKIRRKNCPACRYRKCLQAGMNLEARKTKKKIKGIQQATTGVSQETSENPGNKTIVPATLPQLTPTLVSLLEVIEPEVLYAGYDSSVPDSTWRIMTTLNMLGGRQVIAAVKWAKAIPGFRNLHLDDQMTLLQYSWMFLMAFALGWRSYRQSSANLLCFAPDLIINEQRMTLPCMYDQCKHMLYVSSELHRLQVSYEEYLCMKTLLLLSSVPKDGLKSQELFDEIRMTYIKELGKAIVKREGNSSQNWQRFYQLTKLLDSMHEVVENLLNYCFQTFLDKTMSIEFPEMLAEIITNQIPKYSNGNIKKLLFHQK

[2] = test system: treatment-resistant patients; test: Other treatments of the Example 3 patients (history); conditions: for response to other treatment: Example 3 patients 2, 3, 5, 6, 7, before 7-keto DHEA
Description: Patient 2 A married person was anxious all their life, hypertensive, fragile, had 4 years of depression due to stress and received 12 years of psychoanalysis.

[3] = test system: women with severe chronic PTSD; test: Other medications of the Example 1 case patients (history); type: in vivo, human
Experimental: Case 2. patient two, a person with chronic severe PTSD (DSM-IV) associated with a history of severe childhood physical and sexual abuse, had remained highly symptomatic despite undergoing one and a half years of individual and group CBT and receiving paroxetine up to 30 mg daily, from other practitioners, for more than 4 years. […] They wished to be tapered off paroxetine because they had gained 40 lb, and after becoming obese, they also became hypertensive. Ms. […] Although their paroxetine dosage was tapered to 5 mg every other day, and lamotrigine 100 mg and topiramate 75 mg were administered daily, they remained highly symptomatic.
Case 4. patient one was in psychiatric treatment for over 25 years, including a long course of psychoanalysis and 2 years of CBT. They had been treated with adequate trials of 2 tricyclic antidepressants, 3 SSRIs, venlafaxine, 2 monoamine oxidase inhibitors, 3 anticonvulsants, many typical and atypical antipsychotics, lithium, bupropion, trazodone, and nefazodone.
[…] symptoms persisted in spite of psychotherapy for more than 15 years and numerous trials on medications.

[4] = test system: midlife major and minor depression or dysthymia; conditions: cited from earlier work
[5] = Case 4, lorazepam 1 mg p.r.n., aripiprazole 2.5 mg daily, pemoline 75 mg daily, phentermine 30 mg daily

For `C[C@]12CC[C@H](O)CC1=C[C@@H](O)[C@@H]1[C@@H]2CC[C@]2(C)C(=O)CC[C@@H]12` [7 alpha-hydroxy DHEA], the “preventing the nuclear uptake of [^3H]dexamethasone-activated glucocorticoid receptor” value [1] is listed as “efficient”.
With `CN(C)CCC=C1c2ccccc2COc2ccccc21` [Doxepin] the “response to other treatment” value [2] was “partially responded” and the “tolerability of other treatment” value ([2]; human, in vivo) was “intolerant of the side effects”.
With `O=C1CCc2ccc(OCCCCN3CCN(c4cccc(Cl)c4Cl)CC3)cc2N1` [aripiprazole] the benefit [3, 5] was “some relief from anxiety, depression, and agitation”, the weight gain ([3]; human, in vivo) was 30 lb and the “response to other treatment” value [2] was “partially responded”.
In the case of `C[C@H](N)Cc1ccccc1` [dextroamphetamine], the adverse effect ([3]; Case 4) is reported as “made their anxiety worse”.
With `Fc1ccc([C@@H]2CCNC[C@H]2COc2ccc3c(c2)OCO3)cc1` [paroxetine] the benefit ([3]; Case 2, patient's own judgement) was “not helping their chronic severe anxiety and irritability”.
For `Nc1nnc(-c2cccc(Cl)c2Cl)c(N)n1` [lamotrigine], the “response to other treatment” value [2] was “partially improved”.
For `CN1CCN2c3ncccc3Cc3ccccc3C2C1` (centres unmarked) [Remeron], the “response to other treatment” value [2] was “partially helped”.
With `C[S+](CC[C@H](N)C(=O)O)C[C@H]1O[C@@H](n2cnc3c(N)ncnc32)[C@H](O)[C@@H]1O` (some centres unmarked) [SAMe, S-adenosylmethionine] the “response to other treatment” value [2] was “partially helped; also recorded: made the Doxepin work better”.
For `C[C@]12CC[C@H](O)CC1=C[C@H](O)[C@@H]1[C@@H]2CC[C@]2(C)C(=O)CC[C@@H]12` [7 beta-hydroxy DHEA], the “preventing the nuclear uptake of [^3H]dexamethasone-activated glucocorticoid receptor” value [1] is listed as “efficient”.
With `CNCCC(Oc1ccc(C(F)(F)F)cc1)c1ccccc1` (centres unmarked) [fluoxetine] the “adverse effect of failed trial” value ([3]; human, in vivo) was “agitated and irritable”.
For `COC(=O)C(c1ccccc1)C1CCCCN1` (centres unmarked) [Methylphenidate], the adverse effect ([3]; Case 4) was “made their anxiety worse”.
With `CN[C@H]1CC[C@@H](c2ccc(Cl)c(Cl)c2)c2ccccc21` [sertraline] the benefit ([3]; Case 5, sertraline for 6 years) was “minimal benefit”, the “adverse effect of failed trial” value ([3]; human, in vivo) was “agitated and irritable” and the “response to other treatment” value [2] was “partially improved”.
With `NC1=NC(=O)C(c2ccccc2)O1` (centres unmarked) [Pemoline] the benefit [3, 5] was “enough energy to function”.
In the case of `C[C@]12CC[C@H](O)CC1=CC[C@@H]1[C@@H]2CC[C@]2(C)C(=O)CC[C@@H]12` [DHEA, Dehydroepiandrosterone], the induced mania ([4]; case reports) is listed as “induced mania has been reported” and the effectiveness in depression ([4]; one open series and 3 placebo-controlled, double-blind, randomized trials, midlife major and minor depression or dysthymia) is listed as “supported the effectiveness”.
With `O=C1Nc2ccc(Cl)cc2C(c2ccccc2Cl)=NC1O` (centres unmarked) [lorazepam] the benefit [3, 5] was “some relief from anxiety, depression, and agitation”.
In the case of `COc1ccc(C(CN(C)C)C2(O)CCCCC2)cc1` (centres unmarked) [venlafaxine], the benefit ([3]; Case 5, sertraline for 6 years) is reported as “slightly helpful”, the adverse effect ([3]; Case 5, venlafaxine at 300 mg daily) is reported as “overly activated” and the “response to other treatment” value [2] is reported as “partially responded”. The “tolerability of other treatment” value ([2]; Example 3 patients 6 and 7) was “did not like the side effects”.
With `CC(C)(N)Cc1ccccc1` [phentermine] the benefit [3, 5] was “enough energy to function”.
